Assay results published in patent publication US6720480B2, “Maize proteinase inhibitor-like polynucleotides and defense-activated promoter, transformed plants, and methods of use” (Pioneer Hi-Bred International, Inc., priority 2000, dated 2004).
“And” between values parts separate entries of the source, which are not always exact repeats. Equal values may be shown once.

How the values were obtained:
[1] = system: nucleotide sequences operably linked to the proteinase inhibitor-like promoter; conditions: HC-toxin 1 μg/ml; Northern analysis, average of 3 repeated experiments
[2] = system: zmBBI1::GUS (proteinase inhibitor-like promoter); assay: Co-bombardment of maize immature embryos with zmBBI1::GUS, GUS fluorometric assay after chemical treatment; type: cell-based; conditions: for normalized promoter activity (GUS/Luci), Table 2b: Lucif adj for SA (/0.38); for normalized promoter activity (GUS/Luci), Table 2a: luciferase of sample with no chemicals; for GUS/Luci: Lucif adj for SA and JA (Luci for none); for GUS/Luci / GUS pmol MU/min/ml extract (ave) / GUS pmol MU/min/ml extract (ave), less backg 45.6: Rep 1 and 2; for GUS pmol MU/min/ml extract (ave) / GUS pmol MU/min/ml extract (ave), less backg 45.6: SA 1 mM, JA 0.1 mM; for GUS pmol MU/min/ml extract (ave): 20 h; for GUS pmol MU/min/ml extract (ave), less backg 45.6: second GUS column without own head
Method: The activity of the promoter was also studied in the presence of the putative defense activator, zmNPR1. Specifically, maize immature embryos (IE) were co-bombarded with the zmBBI1::GUS construct along with Act::luciferease as an internal standard and either a carrier DNA or an putative defense activators, zmNPR1 (U.S. patent application Ser. No. 09/551,778, filed Apr. 18, 2000, herein incorporated by reference). Particle preparation and DNA coating were carried out as described by Zhang et al.((2000) Plant Cell Reports 19:241-250) except for use of tungsten (1.0 μm) particles and different amounts of DNA: 50 μl zmBBI1::GUS at 0.02 μg/μl, Act::luciferase at 0.1 μg/μl, and 5 μl of the carrier or activator DNA at 1.0 μg/μl. The amount of DNA delivered for each bombardment were 0.33, 0.17, and 1.67 μg for zmBBI1::GUS, Act::luciferase, and the carrier or activator, respectively. The DNA concentration for zmBBI1::GUS was chosen in previous experiments for low background expression. A total of 45 IEs were used for each bombardment. IEs were placed on the osmotic medium (Vain et al. (1993) Plant Cell Reports 12:84-88) for 4 h before bombardment. The distance from the stopping screen to the target was 10 cm and bombardment was done at 650 psi with a PDS 1000/He device (Bio-Rad Laboratories).
After the bombardment the IEs were cultured on the same osmotic medium for 20-24 hr. Subsequently, the 45 IEs were randomly divided into three groups, 15 IEs for each. They were, then, transferred to three new petri dishes (60×25 mm) for chemical treatments. A piece of filter paper had been placed in each petri dish and wetted with 1.25 ml of 560Y liquid medium containing no chemical, 1 mM SA and 0.1 mM JA, respectively. The IEs were cultured again for another 20 h.
Three IEs from each group were then histochemically stained in X-Gluc staining solution (McCabe et al. (1988) Bio/Technology 6:923-926) for overnight at 37° C. The rest of the IEs were subjected to GUS fluorometric and luciferase assays. Fluorometric measurements of GUS activity were performed by using 50 μl protein extract prepared from the 12 IEs of each treatment and quantified in Fluoroskan Ascent FL (Labsystem) for two time points, 10 and 30 min. Luciferase activity was quantified in a Monolight 2010 (Analytical Luminescence Lab) by mixing 20 μl of protein extract with 100 μl of reaction buffer (Dual-Luciferase Reporter Assay System, Promega) and taking the measurements after 10 s. […]

expression of sequence operably linked to the proteinase inhibitor-like promoter (in words) ([2]; maize immature embryos co-bombarded with zmBBI1::GUS)	Compound	increase in expression level of the reporter sequence linked to the promoter [1] [fold]	normalized promoter activity (GUS/Luci), Table 2b ([2]; Rep 1, NPR1+)	normalized promoter activity (GUS/Luci), Table 2a ([2]; Rep 1, NPR1+)	normalized promoter activity (GUS/Luci), Table 2b ([2]; Rep 1, NPR1−)	normalized promoter activity (GUS/Luci), Table 2a ([2]; Rep 1, NPR1−)	normalized promoter activity (GUS/Luci), Table 2b ([2]; Rep 2, NPR1+)	normalized promoter activity (GUS/Luci), Table 2a ([2]; Rep 2, NPR1+)	normalized promoter activity (GUS/Luci), Table 2b ([2]; Rep 2, NPR1−)	normalized promoter activity (GUS/Luci), Table 2a ([2]; Rep 2, NPR1−)	GUS/Luci ([2]; zmNPR1 N)	GUS pmol MU/min/ml extract (ave) ([2]; zmNPR1 N)	GUS pmol MU/min/ml extract (ave), less backg 45.6 ([2]; zmNPR1 N)	GUS/Luci ([2]; zmNPR1 Y)	GUS pmol MU/min/ml extract (ave) ([2]; zmNPR1 Y)	GUS pmol MU/min/ml extract (ave), less backg 45.6 ([2]; zmNPR1 Y)
	C[C@@H]1NC(=O)[C@H]2CCCN2C(=O)[C@H](CCCCCC(=O)[C@@H]2CO2)NC(=O)[C@@H](C)NC1=O [HC-toxin]	2														
induces expression	O=C(O)c1ccccc1O [SA, salicylic acid]		13.95	20.12	34.87	38.35	14.91	19.22	31.15	40.51	40.15 and 38.35	102.94 pmol MU/min/ml extract and 122.31 pmol MU/min/ml extract	57.34 pmol MU/min/ml extract and 76.71 pmol MU/min/ml extract	20.12 and 19.22	106.54 pmol MU/min/ml extract and 99.71 pmol MU/min/ml extract	60.94 pmol MU/min/ml extract and 54.11 pmol MU/min/ml extract
	CC/C=C\C[C@H]1C(=O)CC[C@@H]1CC(=O)O [JA, jasmonic acid]		3.39	3.19	8.73	6.5	3.54	3.19	11.42	11.74	11.74 and 6.50	62.22 pmol MU/min/ml extract and 58.61 pmol MU/min/ml extract	16.62 pmol MU/min/ml extract and 13.01 pmol MU/min/ml extract	3.19	55.25 pmol MU/min/ml extract and 54.57 pmol MU/min/ml extract	9.65 pmol MU/min/ml extract and 8.97 pmol MU/min/ml extract
